Source: patent US10894807B2 (Siemens Medical Solutions USA, Inc., priority 2011, dated 2021)
pKi: −log10 of the molar value.

molecular target: human PSMA (Homo sapiens (Human), UniProt Q04609); assay: Enzymatic assay for in vitro evaluation of PSMA inhibitors (fluorescent assay of PSMA activity, NAAG substrate, OPA detection of glutamate); format: biochemical; details: not given
Method: Enzymatic Assay for In Vitro Evaluation of PSMA Inhibitors
The inhibitory activity of all compounds was determined using a fluorescent assay of human PSMA activity. The enzyme used in the assay was purchased from R&D Systems and stored at −80° C. The PSMA activity was assayed in a two-step process. In the first step, aliquots of enzyme (0.2 μg/mL) were incubated for 1 h at 37° C. in 50 mM HEPES, 0.1 M NaCl, pH 7.5, in the presence of 20 μM NAAG and the given inhibitor, in a volume of 250 μL, to allow for the accumulation of glutamate produced in the PSMA reaction. In the second step, the amount of accumulated glutamate was measured using the OPA reaction, and the fluorescence was read with a SpectraMax fluorescent plate reader using excitation at 330 nm and emission at 450 nm. The final Ki values for each inhibitor were calculated from the respective IC50 values using the Cheng and Prusoff equation.

human PSMA, sequence (Q04609 whole entry): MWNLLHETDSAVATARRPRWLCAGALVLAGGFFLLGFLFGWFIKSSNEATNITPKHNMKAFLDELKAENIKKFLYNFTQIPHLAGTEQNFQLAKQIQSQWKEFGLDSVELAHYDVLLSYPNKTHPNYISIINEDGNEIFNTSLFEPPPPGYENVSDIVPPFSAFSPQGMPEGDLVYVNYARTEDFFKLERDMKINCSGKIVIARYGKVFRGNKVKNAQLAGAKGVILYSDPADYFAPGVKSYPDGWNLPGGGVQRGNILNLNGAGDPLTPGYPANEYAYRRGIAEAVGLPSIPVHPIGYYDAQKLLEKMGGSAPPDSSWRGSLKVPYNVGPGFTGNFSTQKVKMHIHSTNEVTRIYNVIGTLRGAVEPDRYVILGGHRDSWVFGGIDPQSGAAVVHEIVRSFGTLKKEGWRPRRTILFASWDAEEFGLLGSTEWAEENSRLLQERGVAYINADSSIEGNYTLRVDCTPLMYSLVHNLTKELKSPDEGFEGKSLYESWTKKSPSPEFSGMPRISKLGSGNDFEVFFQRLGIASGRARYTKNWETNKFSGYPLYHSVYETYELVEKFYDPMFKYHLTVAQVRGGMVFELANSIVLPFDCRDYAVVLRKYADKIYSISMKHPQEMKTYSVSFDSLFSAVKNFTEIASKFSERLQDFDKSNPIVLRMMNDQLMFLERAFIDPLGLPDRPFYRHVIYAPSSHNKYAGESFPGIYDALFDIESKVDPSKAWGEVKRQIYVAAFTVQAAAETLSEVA

Row | pKi | SMILES
1 | 7.81 | CN(C(=O)N[C@@H](CCC(=O)O)C(=O)O)[C@@H](CCCCNC(=O)OCc1ccccc1)C(=O)O [P018, (9S,13S)-10-Methyl-3,11-dioxo-1-phenyl-2-oxa-4,10,12-triazapentadecane-9,13,15-tricarboxylic Acid]
2 | 7.43 | CN(C(=O)N[C@@H](CCCCNC(=O)OCc1ccccc1)C(=O)O)[C@@H](CCC(=O)O)C(=O)O [P019, (9S,13S)-12-Methyl-3,11-dioxo-1-phenyl-2-oxa-4,10,12-triazapentadecane-9,13,15-tricarboxylic Acid]

same assay, conditions: compound at 10 μM

Row | SMILES | PSMA Blkg % (10 μM)
3 | Cc1ccc(-c2cn(CC(=O)N[C@@H](CC(=O)N[C@@H](CCC(=O)O)C(=O)O)C(=O)O)nn2)cc1 [P016, (S)-2-((S)-3-Carboxy-3-(2-(4-(p-tolyl)-1H-1,2,3-triazol-1-yl)acetamido)-propanamido)pentanedioic Acid] | 12%
4 | O=C(O)CCN(CC(=O)O)NC(=O)NC(CSCc1ccccc1)C(=O)O (stereo not shown) [P017, 3-(Benzylthio)-2-(2-(2-carboxyethyl)-2-(carboxymethyl)-hydrazinecarboxamido)propanoic Acid] | 0%
5 | CN(C(=O)N[C@@H](CCC(=O)O)C(=O)O)[C@@H](CCCCNC(=O)OCc1ccccc1)C(=O)O [P018, (9S,13S)-10-Methyl-3,11-dioxo-1-phenyl-2-oxa-4,10,12-triazapentadecane-9,13,15-tricarboxylic Acid] | 99%
6 | CN(C(=O)N[C@@H](CCCCNC(=O)OCc1ccccc1)C(=O)O)[C@@H](CCC(=O)O)C(=O)O [P019, (9S,13S)-12-Methyl-3,11-dioxo-1-phenyl-2-oxa-4,10,12-triazapentadecane-9,13,15-tricarboxylic Acid] | 97%
7 | O=C(O)CC[C@H](NC(=O)C[C@H](NC(=O)Cn1cc(CCCF)nn1)C(=O)O)C(=O)O [P020, (S)-2-((S)-3-Carboxy-3-(2-(4-(3-fluoropropyl)-1H-1,2,3-triazol-1-yl)acetamido)-propanamido)pentanedioic Acid] | 0%
8 | O=C(O)CC[C@H](NC(=O)N(CC(=O)O)NC(=O)OCc1ccccc1)C(=O)O [P021, (S)-2-(2-(Benzyloxycarbonyl)-1-(carboxymethyl)hydrazinecarboxamido) pentanedioic Acid] | 0%
9 | O=C(O)CC[C@H](NC(=O)NCC(=O)O)C(=O)O [P022, (S)-2-(3-(Carboxymethyl)ureido)pentanedioic Acid] | 77%
10 | [N-]=[N+]=NCCCC(=O)N[C@@H](CC(=O)N[C@@H](CCC(=O)O)C(=O)O)C(=O)O [P023, (S)-2-((S)-3-(4-Azidobutanamido)-3-carboxypropanamido)pentanedioic Acid] | 24%
11 | C[C@@H](C(=O)O)N(C)C(=O)N[C@@H](CCC(=O)O)C(=O)O [P024, (S)-2-(3-((S)-1-carboxyethyl)-3-methylureido)pentanedioic Acid] | 6%
12 | C[C@H](NC(=O)N[C@@H](CCC(=O)O)C(=O)O)C(=O)O [P025, (S)-2-(3-((S)-1-Carboxyethyl)ureido)pentanedioic Acid] | 92%

Further lines, results first:

Row | PSMA Blkg % (10 μM) | SMILES
13 | 2% | O=C(O)CCNC(=O)N[C@@H](CCC(=O)O)C(=O)O [P026, (S)-2-(3-(2-Carboxyethyl)ureido)pentanedioic Acid]
14 | 31% | O=C(O)CC[C@H](NC(=O)OCC(=O)O)C(=O)O [P027, (S)-2-(((Carboxymethoxy)carbonyl)amino)pentanedioic Acid]
15 | 24% | O=C(O)CN(CC(=O)O)CC(=O)N[C@H](CSCc1ccccc1)C(=O)O [P028, (S)-2,2′-((2-((2-(Benzylthio)-1-carboxyethyl)amino)-2-oxoethyl)azanediyl)diacetic Acid]
16 | 12% | CN(C(=O)CCCC(=O)O)[C@@H](CCC(=O)O)C(=O)O [P029, (S)-2-(4-Carboxy-N-methylbutanamido)pentanedioic Acid]
17 | 2% | O=C(O)CCCC(=O)NC(CCC(=O)O)C(=O)O (stereo not shown) [P030, S)-2-(4-Carboxybutanamido)pentanedioic Acid]
18 | 19% | C[C@H](NC(=O)CCCN=[N+]=[N-])C(=O)N[C@@H](CCC(=O)O)C(=O)O [P031, (S)-2-((S)-2-(4-Azidobutanamido)propanamido)pentanedioic Acid]
19 | 50% | CN(C(=O)N[C@@H](CCC(=O)O)C(=O)O)[C@@H](CCCCNC(=O)Cn1cc(CCCF)nn1)C(=O)O [P032, (S)-2-(3-((S)-1-Carboxy-5-(2-(4-(3-fluoropropyl)-1H-1,2,3-triazol-1-yl)acetamido)pentyl)-3-methylureido)pentanedioic Acid]
